Tested on: human dermal fibroblasts (HDFs)
Test: Oil Red O staining (Example 9)
Type: cell-based
Conditions: D4476 2 μM in addition to Rosiglitazone and T3, day 14, FIG. 9
Description: The next day, the culture supernatant was removed by suction and, as described in the Figure, a normal medium, an adipocyte induction medium, or an adipocyte induction medium added with each low-molecular-weight compound and the like was added at 500 μL/well.
The adipocyte induction medium is a 10% FBS-added DMEM+MDI medium (10% FBS-added DMEM supplemented with 0.5 mM isobutylmethylxanthine (IBMX), 0.5 μM dexamethason and 1 μg/mL Insulin).
The concentrations of the additives are as follows: • T3: 1 nM • Rosiglitazone: 1 μM • D4476: 2 μM.
The culture medium was substituted by a fresh one every 3-4 days and the cells were cultured up to day 14.
The cells were washed 3 times with sterile distilled water, Oil Red O staining solution was added, and the mixture was incubated at room temperature for 15 min. Then the cells were washed with sterile distilled water and photographed at a magnification of 100 with a microscope.

## NC(=O)c1ccc(-c2nc(-c3ccc4c(c3)OCCO4)c(-c3ccccn3)[nH]2)cc1 [D4476, 4-[4-(2,3-dihydro-1,4-benzodioxin-6-yl)-5-(2-pyridlnyl-)1H-imidazol-2-yl]-benzamide]
  Oil Red O staining: remarkable Oil Red O staining as compared to the control
